ChEMBL document CHEMBL5537151, “Design, synthesis and bioactivity evaluation of novel fusion peptides and their CPT conjugates inducing effective anti-tumor responses on HER2 positive tumors” (Eur J Med Chem, 2024)
Peptide text beside a SMILES is read from it. * marks the point of attachment. X7 = CCC1(OC(=O)CCCCCN2C(=O)CC(SC[C@H](N)C(=O)*)C2=O)C(=O)OCc2c1cc1n(c2=O)Cc2cc3ccccc3nc2-1; X2 = CCC1(OC(=O)CCCCCN2C(=O)CC(*)C2=O)C(=O)OCc2c1cc1n(c2=O)Cc2cc3ccccc3nc2-1; X3 = CCC1(OC(=O)CCSSC[C@H](N)C(=O)*)C(=O)OCc2c1cc1n(c2=O)Cc2cc3ccccc3nc2-1; X6 = CCC1(OC(=O)OCCS*)C(=O)OCc2c1cc1n(c2=O)Cc2cc3ccccc3nc2-1; X1 = CCC1(C(=O)OCCS*)C(=O)OCc2c1cc1n(c2=O)Cc2cc3ccccc3nc2-1

Tests used:
MDA-MB-231 = experiment: cells; settings: Homo sapiens, MDA-MB-231, 48 h
Description: Cytotoxicity against HER-negative human MDA-MB-231 cells incubated for 48 hrs by CCK-8 assay

[1] = Cytotoxicity against HER-negative human MCF-10A cells incubated for 48 hrs by CCK-8 assay; assay type: toxicity, cell-based
SK-OV-3 = experiment: cells; settings: Homo sapiens, SK-OV-3, 48 h
Description: Cytotoxicity against HER-positive human SK-OV-3 cells incubated for 48 hrs by CCK-8 assay

SK-BR-3 = experiment: cells; settings: Homo sapiens, SK-BR-3, 48 h
Description: Cytotoxicity against HER-positive human SK-BR-3 cells incubated for 48 hrs by CCK-8 assay

NCI-N87 = experiment: cells; settings: Homo sapiens, NCI-N87, 48 h
Description: Cytotoxicity against HER-positive human NCI-N87 cells incubated for 48 hrs by CCK-8 assay

Structure (SMILES)	IC50 (MDA-MB-231) [µM]	IC50 at 48 h [1] [µM]	IC50 (SK-OV-3) [µM]	IC50 (SK-BR-3) [µM]	IC50 (NCI-N87) [µM]
CC[C@H](C)[C@H](NC(=O)[C@@H]1CCCN1C(=O)[C@@H](NC(=O)[C@H](C)N)C(C)C)C(=O)N[C@@H](C)C(=O)N[C@@H](CCC(N)=O)C(=O)N[C@@H](CCCCN)C(=O)NCC(=O)N[C@@H](Cc1ccccc1)C(=O)N[C@@H](CC(C)C)C(=O)NCC(=O)N[C@@H](CSSCCOC(=O)OC1(CC)C(=O)OCc2c1cc1n(c2=O)Cc2cc3ccccc3nc2-1)C(=O)N[C@@H](CC(N)=O)C(=O)N1CCC[C@H]1C(=O)N[C@@H](CC(N)=O)C(=O)N[C@@H](Cc1c[nH]c2ccccc12)C(=O)NCC(=O)N[C@@H](CCCNC(=N)N)C(=O)N[C@@H](CO)C(=O)N[C@@H](Cc1c[nH]c2ccccc12)C(=O)N[C@@H](Cc1ccc(O)cc1)C(=O)N[C@@H](CC(N)=O)C(=O)N[C@@H](CCC(N)=O)C(=O)N[C@@H](CCCNC(=N)N)C(=O)N[C@@H](Cc1ccccc1)C(=O)N[C@@H](CCCCN)C(N)=O (stereo not given in full) (H-AVPIAQKGFLGC(X6)NPNWGRSWYNQRFK-NH2)	6.43	18.2	4.03	0.85	3.04
CC[C@H](C)[C@H](NC(=O)[C@@H]1CCCN1C(=O)[C@@H](NC(=O)[C@H](C)N)C(C)C)C(=O)N[C@@H](C)C(=O)N[C@@H](CCC(N)=O)C(=O)N[C@@H](CCCCN)C(=O)NCC(=O)N[C@@H](Cc1ccccc1)C(=O)N[C@@H](CC(C)C)C(=O)NCC(=O)N[C@@H](CSSCCOC(=O)C1(CC)C(=O)OCc2c1cc1n(c2=O)Cc2cc3ccccc3nc2-1)C(=O)N[C@@H](CC(N)=O)C(=O)N1CCC[C@H]1C(=O)N[C@@H](CC(N)=O)C(=O)N[C@@H](Cc1c[nH]c2ccccc12)C(=O)NCC(=O)N[C@@H](CCCNC(=N)N)C(=O)N[C@@H](CO)C(=O)N[C@@H](Cc1c[nH]c2ccccc12)C(=O)N[C@@H](Cc1ccc(O)cc1)C(=O)N[C@@H](CC(N)=O)C(=O)N[C@@H](CCC(N)=O)C(=O)N[C@@H](CCCNC(=N)N)C(=O)N[C@@H](Cc1ccccc1)C(=O)N[C@@H](CCCCN)C(N)=O (stereo not given in full) (H-AVPIAQKGFLGC(X1)NPNWGRSWYNQRFK-NH2)	10.6	15.1	8.24	2.59	5.93
CC[C@H](C)[C@H](NC(=O)[C@@H]1CCCN1C(=O)[C@@H](NC(=O)[C@H](C)N)C(C)C)C(=O)N[C@@H](C)C(=O)N[C@@H](CCC(N)=O)C(=O)N[C@@H](CCCCN)C(=O)NCC(=O)N[C@@H](Cc1ccccc1)C(=O)N[C@@H](CC(C)C)C(=O)NCC(=O)N[C@@H](CSC1CC(=O)N(CCCCCC(=O)OC2(CC)C(=O)OCc3c2cc2n(c3=O)Cc3cc4ccccc4nc3-2)C1=O)C(=O)N[C@@H](CC(N)=O)C(=O)N1CCC[C@H]1C(=O)N[C@@H](CC(N)=O)C(=O)N[C@@H](Cc1c[nH]c2ccccc12)C(=O)NCC(=O)N[C@@H](CCCNC(=N)N)C(=O)N[C@@H](CO)C(=O)N[C@@H](Cc1c[nH]c2ccccc12)C(=O)N[C@@H](Cc1ccc(O)cc1)C(=O)N[C@@H](CC(N)=O)C(=O)N[C@@H](CCC(N)=O)C(=O)N[C@@H](CCCNC(=N)N)C(=O)N[C@@H](Cc1ccccc1)C(=O)N[C@@H](CCCCN)C(N)=O (stereo not given in full) (H-AVPIAQKGFLGC(X2)NPNWGRSWYNQRFK-NH2)	30.6	> 50	> 50	18.3	25.3
CC[C@H](C)[C@H](NC(=O)[C@@H]1CCCN1C(=O)[C@@H](NC(=O)[C@H](C)N)C(C)C)C(=O)N[C@@H](C)C(=O)N[C@@H](CCC(N)=O)C(=O)N[C@@H](CCCCN)C(=O)NCC(=O)N[C@@H](Cc1ccccc1)C(=O)N[C@@H](CC(C)C)C(=O)NCC(=O)N[C@@H](CC(N)=O)C(=O)N1CCC[C@H]1C(=O)N[C@@H](CC(N)=O)C(=O)N[C@@H](Cc1c[nH]c2ccccc12)C(=O)NCC(=O)N[C@@H](CCCNC(=N)N)C(=O)N[C@@H](CO)C(=O)N[C@@H](Cc1c[nH]c2ccccc12)C(=O)N[C@@H](Cc1ccc(O)cc1)C(=O)N[C@@H](CC(N)=O)C(=O)N[C@@H](CCC(N)=O)C(=O)N[C@@H](CCCNC(=N)N)C(=O)N[C@@H](Cc1ccccc1)C(=O)N[C@@H](CCCCNC(=O)[C@@H](N)CSC1CC(=O)N(CCCCCC(=O)OC2(CC)C(=O)OCc3c2cc2n(c3=O)Cc3cc4ccccc4nc3-2)C1=O)C(N)=O (stereo not given in full) (H-AVPIAQKGFLGNPNWGRSWYNQRFK(X7)-NH2)	31.4	> 50	> 50	12.6	24.2
CC[C@H](C)[C@H](NC(=O)[C@@H]1CCCN1C(=O)[C@@H](NC(=O)[C@H](C)N)C(C)C)C(=O)N[C@@H](C)C(=O)N[C@@H](CCC(N)=O)C(=O)N[C@@H](CCCCN)C(=O)NCC(=O)N[C@@H](Cc1ccccc1)C(=O)N[C@@H](CC(C)C)C(=O)NCC(=O)N[C@@H](CC(N)=O)C(=O)N1CCC[C@H]1C(=O)N[C@@H](CC(N)=O)C(=O)N[C@@H](Cc1c[nH]c2ccccc12)C(=O)NCC(=O)N[C@@H](CCCNC(=N)N)C(=O)N[C@@H](CO)C(=O)N[C@@H](Cc1c[nH]c2ccccc12)C(=O)N[C@@H](Cc1ccc(O)cc1)C(=O)N[C@@H](CC(N)=O)C(=O)N[C@@H](CCC(N)=O)C(=O)N[C@@H](CCCNC(=N)N)C(=O)N[C@@H](Cc1ccccc1)C(=O)N[C@@H](CCCCNC(=O)[C@@H](N)CSSCCC(=O)OC1(CC)C(=O)OCc2c1cc1n(c2=O)Cc2cc3ccccc3nc2-1)C(N)=O (stereo not given in full) (H-AVPIAQKGFLGNPNWGRSWYNQRFK(X3)-NH2)	15.1	28.4	4.73	2.3	8.01
